Assay results published in patent US20260184663A1, “INDENE COMPOUNDS, PHARMACEUTICAL COMPOSITIONS THEREOF, AND THEIR THERAPEUTIC APPLICATIONS” (NucMito Pharmaceuticals co. Ltd., priority 2022, published 2026).

Legend:
Format in all cases: cell-based
SW480 (colon cancer) = test: Antiproliferative activity (CCK-8 cell viability), SW480; conditions: Homo sapiens, 72 h, read-out: Antiproliferative activity in cancerous cells, SW480 (inhibition of cell growth); for inhibition at 3.3 µM: Compound concentration: 3.3 μM; for inhibition at 10 µM: Compound concentration: 10 μM; for inhibition at 30 µM: Compound concentration: 30 μM
How it was run: (§1)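 Cells grown in DMEM (HepG2, SW480), MEM (HeLa) or F-12K (A549), each with 10% FBS, then exposed to compound at 3.3, 10 or 30 μM for 72 h at 37 °C. CCK-8 absorbance at 450 nm; viability expressed as percent of DMSO-treated cells, graded as growth inhibition bands.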

HepG2 (liver cancer) = test: Antiproliferative activity (CCK-8 cell viability), HepG2; conditions: Homo sapiens, 72 h, read-out: Antiproliferative activity in cancerous cells, HepG2 (inhibition of cell growth); for inhibition at 3.3 µM: Compound concentration: 3.3 μM; for inhibition at 10 µM: Compound concentration: 10 μM; for inhibition at 30 µM: Compound concentration: 30 μM
How it was run: as §1

[1] = tested on: A431 (epidermoid carcinoma); test: Antiproliferative activity (CCK-8 cell viability), A431; conditions: Homo sapiens, 72 h, read-out: Antiproliferative activity in cancerous cells, A431 (inhibition of cell growth); for inhibition at 3.3 µM: A-431, Compound concentration: 3.3 μM; for inhibition at 10 µM: A-431, Compound concentration: 10 μM; for inhibition at 30 µM: A-431, Compound concentration: 30 μM
How it was run: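 A431 epidermoid carcinoma cells grown in DMEM with 10% FBS were plated at 2,000-5,000 cells/well in 96-well plates. After attachment they were exposed to compound at 3.3 μM, 10 μM, or 30 μM for 72 h at 37° C. Viability was then assessed by CCK-8 against DMSO vehicle-treated wells.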

HeLa (cervical cancer) = test: Antiproliferative activity (CCK-8 cell viability), HeLa; conditions: Homo sapiens, 72 h, read-out: Antiproliferative activity in cancerous cells, HELA (inhibition of cell growth); for inhibition at 3.3 µM: Compound concentration: 3.3 μM; for inhibition at 10 µM: Compound concentration: 10 μM; for inhibition at 30 µM: Compound concentration: 30 μM
How it was run: as §1

[2] = tested on: A549 (lung adenocarcinoma); test: Antiproliferative activity (CCK-8 cell viability), A549; conditions: Homo sapiens, 72 h, read-out: Antiproliferative activity in cancerous cells, A549 (inhibition of cell growth); for inhibition at 3.3 µM: Compound concentration: 3.3 μM; for inhibition at 10 µM: Compound concentration: 10 μM; for inhibition at 30 µM: Compound concentration: 30 μM
How it was run: as §1

[3] = tested on: B16F10 (malignant melanoma); test: Antiproliferative activity (CCK-8 cell viability), B16F10; conditions: Mus musculus, 72 h, read-out: Antiproliferative activity in cancerous cells, B16F10 (inhibition of cell growth); for inhibition at 3.3 µM: B16-F10, Compound concentration: 3.3 μM; for inhibition at 10 µM: B16-F10, Compound concentration: 10 μM; for inhibition at 30 µM: B16-F10, Compound concentration: 30 μM
How it was run: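 B16F10 melanoma cells grown in DMEM with 10% FBS were plated in 96-well plates at 2,000-5,000 cells/well. After attachment they were exposed to compound in medium for 72 h at 37° C. CCK-8 solution (10 μL) was then added, and after 4 h at 37° C absorbance was read at 450 nm.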

[4] = tested on: MDA-MB-231 (breast cancer); test: Antiproliferative activity (CCK-8 cell viability), MDA-MB-231; conditions: Homo sapiens, 72 h, read-out: Antiproliferative activity in cancerous cells, MDA-MB-231 (inhibition of cell growth); for inhibition at 3.3 µM: Compound concentration: 3.3 μM; for inhibition at 10 µM: Compound concentration: 10 μM; for inhibition at 30 µM: Compound concentration: 30 μM
How it was run: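 MDA-MB-231 breast cancer cells, grown in DMEM with 10% FBS, were plated in 96-well plates at 2,000-5,000 cells/well. Once attached, they were exposed to compound and incubated at 37° C. for 72 h. Viability was then measured with CCK-8 (10 μL per well, 4 h at 37° C.) by absorbance at 450 nm, relative to DMSO vehicle wells.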

| Compound | inhibition at 3.3 µM (SW480 (colon cancer)) | inhibition at 10 µM (SW480 (colon cancer)) | inhibition at 3.3 µM (HepG2 (liver cancer)) | inhibition at 10 µM (HepG2 (liver cancer)) | inhibition at 3.3 µM [1] | inhibition at 10 µM [1] | inhibition at 3.3 µM (HeLa (cervical cancer)) | inhibition at 10 µM (HeLa (cervical cancer)) | inhibition at 3.3 µM [2] | inhibition at 10 µM [2] | inhibition at 3.3 µM [3] | inhibition at 10 µM [3] | inhibition at 3.3 µM [4] | inhibition at 10 µM [4] | inhibition at 30 µM (SW480 (colon cancer)) | inhibition at 30 µM (HepG2 (liver cancer)) | inhibition at 30 µM [1] | inhibition at 30 µM (HeLa (cervical cancer)) | inhibition at 30 µM [2] | inhibition at 30 µM [3] | further results |
| --- | --- | --- | --- | --- | --- | --- | --- | --- | --- | --- | --- | --- | --- | --- | --- | --- | --- | --- | --- | --- | --- |
| CC1=C(CC(=O)O)c2cc(Br)ccc2/C1=C\c1cccc(Oc2ccccc2)c1 [C110, (Z)-2-(5-Bromo-2-methyl-1-(3-phenoxybenzylidene)-1H-inden-3-yl)acetic acid] | < 30% | 30 to 50% | < 30% | ≥ 50% | < 30% | ≥ 50% | < 30% | ≥ 50% | < 30% | ≥ 50% | ≥ 50% | ≥ 50% | < 30% | ≥ 50% | – | – | – | – | – | – | – |
| CC1=C(CC(=O)O)c2cc(F)ccc2/C1=C\c1ccc(OC2CCN(C(=O)OC(C)(C)C)CC2)cc1 [C201, (Z)-2-(1-(4-((1-(Tert-butoxycarbonyl)piperidin-4-yl)oxy)benzylidene)-5-fluoro-2-methyl-1H-inden-3-yl)acetic acid] | < 30% | ≥ 50% | < 30% | ≥ 50% | ≥ 50% | ≥ 50% | < 30% | ≥ 50% | < 30% | ≥ 50% | < 30% | ≥ 50% | < 30% | ≥ 50% | ≥ 50% | ≥ 50% | ≥ 50% | ≥ 50% | ≥ 50% | ≥ 50% | inhibition at 30 µM [4]: ≥ 50% |
| CC1=C(CC(=O)O)c2cc(F)ccc2/C1=C\c1ccc(OC2CCNCC2)cc1 [C202, (Z)-2-(5-Fluoro-2-methyl-1-(4-(piperidin-4-yloxy)benzylidene)-1H-inden-3-yl)-acetic acid] | < 30% | < 30% | < 30% | < 30% | ≥ 50% | ≥ 50% | < 30% | 30 to 50% | < 30% | < 30% | < 30% | < 30% | < 30% | < 30% | < 30% | ≥ 50% | ≥ 50% | ≥ 50% | 30 to 50% | ≥ 50% | inhibition at 30 µM [4]: ≥ 50% |
| CC(=O)CC(=O)N1CCC(Oc2ccc(/C=C3/C(C)=C(CC(=O)O)c4cc(F)ccc43)cc2)CC1 [C203, (Z)-2-(5-Fluoro-2-methyl-1-(4-((1-(3-oxobutanoyl)piperidin-4-yl)oxy)-benzylidene)-1H-inden-3-yl)acetic acid] | < 30% | < 30% | < 30% | < 30% | ≥ 50% | ≥ 50% | < 30% | < 30% | 30 to 50% | < 30% | < 30% | ≥ 50% | < 30% | < 30% | < 30% | < 30% | ≥ 50% | < 30% | < 30% | ≥ 50% | inhibition at 30 µM [4]: < 30% |
| CC1=C(CC(=O)O)c2cc(F)ccc2/C1=C\c1ccc(OC2CCC(F)(F)CC2)cc1 [C205, (Z)-2-(1-(4-((4,4-Difluorocyclohexyl)oxy)benzylidene)-5-fluoro-2-methyl-1H-inden-3-yl)acetic acid] | 30 to 50% | 30 to 50% | < 30% | 30 to 50% | < 30% | 30 to 50% | < 30% | ≥ 50% | < 30% | ≥ 50% | ≥ 50% | ≥ 50% | ≥ 50% | ≥ 50% | ≥ 50% | ≥ 50% | ≥ 50% | ≥ 50% | ≥ 50% | ≥ 50% | inhibition at 30 µM [4]: ≥ 50% |
| CC1=C(CC(=O)O)c2cc(F)ccc2/C1=C\c1cccc(OC2CCC(F)(F)CC2)c1 [C206, (Z)-2-(1-(3-((4,4-Difluorocyclohexyl)oxy)benzylidene)-5-fluoro-2-methyl-1H-inden-3-yl)acetic acid] | 30 to 50% | ≥ 50% | < 30% | ≥ 50% | 30 to 50% | 30 to 50% | < 30% | ≥ 50% | < 30% | ≥ 50% | ≥ 50% | ≥ 50% | ≥ 50% | ≥ 50% | ≥ 50% | ≥ 50% | ≥ 50% | ≥ 50% | ≥ 50% | ≥ 50% | inhibition at 30 µM [4]: ≥ 50% |
| CC1=C(CC(=O)O)c2cc(F)ccc2/C1=C\c1cccc(C(F)(F)c2ccccc2)c1 [C301, (Z)-2-(1-(3-(Difluoro(phenyl)methyl)benzylidene)-5-fluoro-2-methyl-1H-inden-3-yl)acetic acid] | < 30% | < 30% | < 30% | < 30% | < 30% | < 30% | < 30% | ≥ 50% | < 30% | < 30% | 30 to 50% | ≥ 50% | ≥ 50% | ≥ 50% | ≥ 50% | ≥ 50% | ≥ 50% | ≥ 50% | ≥ 50% | ≥ 50% | inhibition at 30 µM [4]: ≥ 50% |
